Data from ChEMBL document CHEMBL4321883 (J Med Chem, 2020).
Activity calls are given as the source filed them. The rule behind the calls is not given here.

Columns and labels:
[1] = target: T1, Hepatic triacylglycerol lipase (Homo sapiens, UniProt P11150); assay: Inhibition of human HL […] using A10070 as substrate preincubated for 20 min followed by DMPG vesicle doped substrate addition and measured at 20 secs interval for 10 mins by fluorescence assay; assay type: cell-based
T1 sequence (P11150 whole entry): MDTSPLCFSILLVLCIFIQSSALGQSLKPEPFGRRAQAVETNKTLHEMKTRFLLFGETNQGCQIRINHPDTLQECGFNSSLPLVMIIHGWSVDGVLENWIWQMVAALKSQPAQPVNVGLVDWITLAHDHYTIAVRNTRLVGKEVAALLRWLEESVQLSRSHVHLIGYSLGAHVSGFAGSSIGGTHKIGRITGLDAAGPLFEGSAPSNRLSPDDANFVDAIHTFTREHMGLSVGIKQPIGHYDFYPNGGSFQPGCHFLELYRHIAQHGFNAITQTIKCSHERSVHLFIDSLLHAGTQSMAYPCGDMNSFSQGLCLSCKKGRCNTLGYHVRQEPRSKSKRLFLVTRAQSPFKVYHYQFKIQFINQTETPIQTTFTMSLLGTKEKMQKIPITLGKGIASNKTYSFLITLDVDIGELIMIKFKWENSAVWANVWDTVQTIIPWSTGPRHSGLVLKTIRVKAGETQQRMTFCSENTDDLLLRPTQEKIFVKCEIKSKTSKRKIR

Endothelial lipase [2] = target: T2, Endothelial lipase (Homo sapiens, UniProt Q9Y5X9); assay: Inhibition of EL in human HT1080 cells using A10070 as substrate preincubated for 20 min followed by DMPG vesicle doped substrate addition and measured at 20 secs interval for 10 mins by fluorescence assay; assay type: cell-based
T2 sequence (Q9Y5X9 whole entry): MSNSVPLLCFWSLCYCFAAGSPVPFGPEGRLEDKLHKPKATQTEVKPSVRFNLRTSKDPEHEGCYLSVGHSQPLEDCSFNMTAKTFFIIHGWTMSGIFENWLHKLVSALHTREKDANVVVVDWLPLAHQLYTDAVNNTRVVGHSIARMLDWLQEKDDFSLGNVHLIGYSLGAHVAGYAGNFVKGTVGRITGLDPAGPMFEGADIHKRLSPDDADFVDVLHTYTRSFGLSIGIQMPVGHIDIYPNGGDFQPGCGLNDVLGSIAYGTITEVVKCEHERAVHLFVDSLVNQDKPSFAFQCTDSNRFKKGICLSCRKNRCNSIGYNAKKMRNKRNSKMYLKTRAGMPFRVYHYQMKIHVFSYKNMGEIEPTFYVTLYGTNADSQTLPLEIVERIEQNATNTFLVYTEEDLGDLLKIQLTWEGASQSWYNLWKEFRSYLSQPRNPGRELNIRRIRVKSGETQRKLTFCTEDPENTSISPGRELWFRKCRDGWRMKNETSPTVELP

Endothelial lipase [3] = target: T2, Endothelial lipase; assay: Inhibition of EL in human HT1080 cells using D31-POPC-HDL as substrate incubated for 2 hrs in presence of human serum by LC/MS analysis; assay type: cell-based
Endothelial lipase [4] = target: T2, Endothelial lipase; assay: Inhibition of EL in human HT1080 cells using D31-POPC-HDL as substrate incubated for 2 hrs in presence of mouse plasma by LC/MS analysis; assay type: cell-based
[5] = Cmax in C57BL/6 mouse at 50 mg/kg, ip administered as nanosuspension measured after 24 hrs by LC-MS/MS analysis; assay type: ADME, organism-based; design: dose 50 mg/kg, route intraperitoneal; conditions: in vivo
[6] = AUC (0 to 24 hrs) in C57BL/6 mouse at 50 mg/kg, ip administered as nanosuspension measured after 24 hrs by LC-MS/MS analysis; assay type: ADME, organism-based; design: dose 50 mg/kg, time < 24 hr, route intraperitoneal; conditions: in vivo
Endothelial lipase [7] = target: T3, Endothelial lipase (Mus musculus, UniProt Q9WVG5); assay: Inhibition of endothelial lipase in hepatic lipase knock-out mouse plasma; assay type: cell-free
T3 sequence (Q9WVG5 whole entry): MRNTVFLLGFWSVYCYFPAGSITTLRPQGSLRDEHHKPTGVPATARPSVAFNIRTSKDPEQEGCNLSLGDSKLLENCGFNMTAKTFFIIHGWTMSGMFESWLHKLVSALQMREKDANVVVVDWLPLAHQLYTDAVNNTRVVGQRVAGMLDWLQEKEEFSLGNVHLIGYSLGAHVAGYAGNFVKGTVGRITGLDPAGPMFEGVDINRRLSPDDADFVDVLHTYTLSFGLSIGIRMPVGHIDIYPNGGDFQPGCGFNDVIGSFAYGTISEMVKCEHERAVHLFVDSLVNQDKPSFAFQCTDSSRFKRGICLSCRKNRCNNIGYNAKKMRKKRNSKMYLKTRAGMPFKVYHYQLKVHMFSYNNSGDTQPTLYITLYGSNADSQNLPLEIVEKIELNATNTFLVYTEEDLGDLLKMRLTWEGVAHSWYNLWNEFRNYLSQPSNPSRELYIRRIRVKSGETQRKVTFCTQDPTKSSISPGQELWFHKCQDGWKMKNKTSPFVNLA

[8] = Metabolic stability in mouse liver microsomes assessed as compound remaining at 0.5 uM incubated for 10 mins; assay type: ADME, Microsome; conditions: read-out: Stability
Homo sapiens = species: Homo sapiens; assay: Selectivity index, ratio of IC50 for human HL expressed in […] cells to IC50 for EL in human HT1080 cells; assay type: cell-based
[9] = Metabolic stability in rat liver microsomes assessed as compound remaining at 0.5 uM incubated for 10 mins; assay type: ADME, Microsome; conditions: read-out: Stability
[10] = Metabolic stability in human liver microsomes assessed as compound remaining at 0.5 uM incubated for 10 mins; assay type: ADME, Microsome; conditions: read-out: Stability
Mus musculus [11] = assay: Antihyperlipidemic activity in C57BL/6 mouse assessed as increase in HDL-C level at 50 mg/kg, ip qd administered as nanosuspension for 2 days measured 6 hrs post-last dose by LC-MS/MS analysis relative to control; assay type: functional
[12] = Plasma concentration in C57BL/6 mouse at 50 mg/kg, ip administered as nanosuspension measured after 24 hrs by LC-MS/MS analysis; assay type: ADME, organism-based
Mus musculus [13] = assay: Antihyperlipidemic activity in EL knock out C57BL/6 mouse assessed as increase in HDL-C level at 50 mg/kg, ip qd administered as nanosuspension for 2 days measured 6 hrs post-last dose by LC-MS/MS analysis relative to control; assay type: functional, organism-based
Mus musculus [14] = assay: Induction of macrophage-mediated [3H]-cholesterol efflux in C57BL/6 mouse at 50 mg/kg, ip qd administered as nanosuspension for 3 days followed by [3H]-cholesterol addition on day 3 and measured after 2.5 hrs relative to control; assay type: functional
Mus musculus [15] = assay: Antihyperlipidemic activity in hCETP/apoB-100 dual transgenic C57BL/6 mouse assessed as increase in HDL-C level at 50 mg/kg, ip bid administered as nanosuspension for 2 days measured 6 hrs post-last dose by FPLC analysis relative to control; assay type: functional
[16] = Plasma concentration in C57BL/6 mouse at 50 mg/kg, ip qd administered as nanosuspension for 2 days measured 6 hrs post-last dose by LC-MS/MS analysis; assay type: ADME, organism-based
Mus musculus [17] = assay: Antihyperlipidemic activity in hCETP/apoB-100 dual transgenic C57BL/6 mouse assessed as effect on LDL-C level at 50 mg/kg, ip bid administered as nanosuspension for 2 days measured 6 hrs post-last dose by FPLC analysis; assay type: functional, organism-based
[18] = Plasma concentration in C57BL/6 mouse at 50 mg/kg, po measured after 24 hrs by LC-MS/MS analysis; assay type: ADME, organism-based
[19] = Plasma concentration in HL knock out C57BL/6 mouse at 50 mg/kg, ip qd administered as nanosuspension for 2 days measured 6 hrs post-last dose by LC-MS/MS analysis; assay type: ADME, organism-based
Mus musculus [20] = assay: Antihyperlipidemic activity in HL knock out C57BL/6 mouse assessed as increase in HDL-C level at 50 mg/kg, ip qd administered as nanosuspension for 2 days measured 6 hrs post-last dose by LC-MS/MS analysis relative to control; assay type: functional
[21] = Plasma concentration in EL knock out C57BL/6 mouse at 50 mg/kg, ip qd administered as nanosuspension for 2 days measured 6 hrs post-last dose by LC-MS/MS analysis; assay type: ADME, organism-based
[22] = Plasma concentration in C57BL/6 mouse at 50 mg/kg, sc measured after 24 hrs by LC-MS/MS analysis; assay type: ADME, organism-based

IC50 [1]	IC50 (Endothelial lipase [2])	IC50 (Endothelial lipase [3])	IC50 (Endothelial lipase [4])	IC50 (Endothelial lipase [7])	remaining at 10 min, 0.5 µM [8]	remaining at 10 min, 0.5 µM [10]	concentration at 24 h [12]	SMILES	Activity (Mus musculus [11])	further results
0.003 µM	0.02 µM	7 µM	1 µM	–	–	–	–	CN(Cc1nnc(C(=O)c2nc3ccc(-c4ccccc4)cc3s2)o1)S(N)(=O)=O	–	–
0.004 µM	< 0.0005 µM	0.05 µM	–	0.2 µM	> 80%	87%	250 nM	NS(=O)(=O)NCc1nnc(C(=O)c2nc3cc(F)c(C(=O)NCC(F)(F)F)cc3s2)o1	37.8 - 38%	Cmax [5]: 7100 nM; AUC(0-t) at 24 h [6]: 58 µM·h; Ratio IC50 (Homo sapiens): 8; remaining at 10 min, 0.5 µM [9]: > 80%
> 0.01 µM	0.03 µM	1 µM	1 µM	–	–	–	–	NC(=O)NCc1nnc(C(=O)c2nc3ccc(-c4ccccc4)cc3s2)o1	–	–
–	–	–	–	–	–	–	460 nM	NS(=O)(=O)NCc1nnc(C(=O)c2nc3cc(-c4ccc5c(c4)CNC5=O)c(F)cc3s2)o1	36.9 - 37%	–
0.004 µM	< 0.0005 µM	0.2 µM	–	0.2 µM	100%	98%	–	NS(=O)(=O)NCc1nnc(C(=O)c2nc3cc(-c4ccc(C(=O)NCC(F)(F)F)cc4)c(F)cc3s2)o1	–	–
–	–	–	–	–	–	–	500 nM	NS(=O)(=O)NCc1nnc(C(=O)c2nc3ccc(-c4ccccc4)cc3s2)o1	56%	Activity (Mus musculus [13]): inactive; Activity (Mus musculus [14]): 53%; Activity (Mus musculus [15]): 36%; concentration at 6 h [16]: 520 nM; Activity (Mus musculus [17]): inactive; concentration at 24 h [18]: 250 nM; concentration at 6 h [19]: 11000 nM; Activity (Mus musculus [20]): 31.7 - 32%; concentration at 6 h [21]: 8500 nM; concentration at 24 h [22]: 190 nM
